Assays:
[1] = test system: Staphylococcus; assay: Anti-microbial test: microorganisms inoculated into gel formula, survivors counted; assay type: cell-based
Method: The antimicrobially synergistically effect of alpha Bisabolol (Natural) for glyceryl monoalkyl ether was studied and the results are summarized in Tables 15 and 16, below. […] Subsequently the steareth-100, sodium stearate, and stearyl alcohol were added and the mixture cooled. […] The final compositions were then poured into containers and cooled to room temperature. […] Therefore following formula is gel type. Inoculate test microorganisms to provide a suspension containing from […] microorganisms/ml and after 1 hr, 5 hr and 24 hr, check the surviving microorganisms by incubating in the soybean-casein digest agar for 24 hours at 32.5° C. the results are summarized below.

[2] = 0.3% by weight ethylhexylglycerin in ethanol base deodorant vs 0.1% by weight triclosan; cited from earlier work
[3] = test system: odor-causing gram positive bacteria; conditions: as reported in U.S. Pat. No. 5,736,574; cited from earlier work
[4] = cited from earlier work

Structure (SMILES)	anti-microbial activity (in words) ([1]; 0.2% by weight, with no ethylhexylglycerin)	effect on the anti-microbial activity of ethylhexylglycerin ([1]; alpha Bisabolol (Natural) combined with ethylhexylglycerin)	deodorant effectiveness compared with triclosan [2]	anti-microbial activity against odor-causing gram positive bacteria [3]	stability ([4]; e.g. against hydrolysis and elevated temperatures)	solubility in fats and organic solvents ([4]; fats and organic solvents like alcohols, glycols and glycol ethers)	solubility in water ([4]; water) [%]
CC(C)=CCC[C@](C)(O)[C@@H]1CC=C(C)CC1 [alpha Bisabolol (Natural), alpha-Bisabolol]	no anti-microbial activity	synergistic effect					
CCCCC(CC)COCC(O)CO (stereo not shown) [ethylhexylglycerin, Ethylhexylglycerin]			just as effective as 0.1% by weight triclosan	very low	rather stable	completely soluble	0.2

Reference: US20080292571A1, “Deodorant composition with monocyclic, unsaturated sequiterpene alcohols and glyceryl monoalkyl ethers as synergistic active deodorant agents” (priority 2007, published 2008)
